According to patent US11950594B2, “Methods and compositions for inhibiting formation of biofilms” (INSTITUTE OF MICROBIOLOGY, CHINESE ACADEMY OF SCIENCES, priority 2019, dated 2024):

Columns and labels:
Pseudomonas aeruginosa [1] = experiment: MIC of antibiotics, Calgary biofilm device; assay type: cell-based; details: treated with C9 5 mM, versus untreated group
Protocol: (§1) MIC and MBEC values of a biofilm formed on a peg of a […] biofilm device (CGM and CBD) treated with the coumarin-chalcone compound C9 were measured according to methods (Innovotech) in MBECTM high throughput experimental operation manual. Biofilm treated with the coumarin-chalcone compound C9 (5 mM) was cultured in an antibiotic-containing medium in a 96-well plate for 24 h, and the MIC value was obtained by measuring the OD600 of planktonic cells of the above samples. To determine the MBEC value, the biofilm treated with the coumarin-chalcone compound C9 (5 mM) was cultured in an antibiotic-containing medium in a 96-well plate for 24 h, then the biofilm was ultrasonically crushed and subsequently incubated at 37° C. for another 24 hours. Biomass of newly formed biofilms was recorded to indicate the corresponding MBEC value.

[2] = tested on: Pseudomonas aeruginosa PAO1; experiment: Growth curve analysis (OD600); assay type: cell-based; details: 5 mM C9, LB, 37° C., 24 h
Protocol: Pseudomonas aeruginosa PAO1 (optical density OD600≈1.5) was cultured in LB liquid medium overnight, and 1% inoculation amount of the bacterial solution was inoculated into a fresh LB liquid medium. Two equal amounts of bacterial solution with and without 5 mM coumarin-chalcone compound C9 were cultured in a shaking incubator with 200 rpm at 37° C. for 24 h. OD value of the bacterial solution at 600 nm was measured every hour with a spectrophotometer to trace bacterial growth.

LasR = experiment: QS gene expression, GFP promoter fusion; assay type: cell-based, Pseudomonas aeruginosa; details: FIGS. 8A to 8D
Excerpt: (§2) The QS system may regulate the formation of biofilm and the expression of multiple virulence factors. Whether the coumarin-chalcone compound C9 influences the QS regulation system was further studied. In the embodiment, a green fluorescent protein (GFP) was used as a reporter gene to examine the influence of the coumarin-chalcone compound C9 on the QS system. In this experiment, the transcription regulator genes (including LasR, RhIR, and PqsR) in three QS systems of Pseudomonas aeruginosa were used to study the gene expression of the QS system. By PCR expansion, promoter regions of the three genes were transcriptionally fused with a promoterless GFP fusion expression vector pProbe-AT, respectively, to construct transcription fusion plasmids that can indicate the expression level of LasR, RhIR, and PqsR genes, which were used as representatives of the expression of the three QS systems.
(§3) The overnight cultured bacterial solution was inoculated into the freshly prepared LB liquid medium to make its OD600 at 0.25, and then cultured for 2 h. Fluorescence was measured at 4 h, 8 h, 12 h, 16 h, 20 h, 24 h, respectively, and the measurement was performed in a 96-well plate. Bacterial growth was monitored by measuring OD600. The gene expression level was normalized by dividing the fluorescence value by the OD600 value of each sample.
(§4) The effects of the coumarin-chalcone compound C9 on the transcription of the three known QS regulators LasR, RhIR, and PqsR were examined by gfp fusion. FIGS. 8A to 8D are schematic diagrams illustrating the inhibition of QS systems in P. aeruginosa by compound C9. The transcription of QS-related genes (LasI, LasR, RhII, RhIR, PqsA, and PqsR) was indicated by the green fluorescent intensity of GFP-tagged promoter region through pPROBE-AT′ plasmid, the data of a blank group, a control group, and an experimental group treated with a coumarin-chalcone compound C9 were presented.

RhIR = experiment: QS gene expression, GFP promoter fusion; assay type: cell-based, Pseudomonas aeruginosa; details: FIGS. 8A to 8D
Excerpt: as §2, §3, §4

PqsR = experiment: QS gene expression, GFP promoter fusion; assay type: cell-based, Pseudomonas aeruginosa; details: FIGS. 8A to 8D
Excerpt: as §2, §3, §4

[3] = tested on: Pseudomonas aeruginosa biofilm; experiment: MBEC of antibiotics, Calgary biofilm device; assay type: cell-based; details: treated with C9 5 mM, versus untreated group
Protocol: as §1

PAO1 strains [4] = experiment: Bacterial motility assay, swimming plate; assay type: cell-based, Pseudomonas aeruginosa; details: 37° C., 24 hours
Protocol: PAO1 strains were inoculated into a LBNS agar plate and were cultured overnight at 37° C. Single colonies were respectively inoculated on the surface of swimming plates with and without the coumarin-chalcone compound C9, and cultured at 37° C. for 24 hours. Then, a diameter of a translucent area formed by bacterial swimming on each swimming plate was measured.

Pseudomonas aeruginosa [5] = experiment: Antibiotic susceptibility, filter paper method (inhibition area); assay type: cell-based; details: C9 5 mM in culture medium, versus control group
Protocol: In the experiment, the coumarin-chalcone compound C9 (5 mM) was added to a culture medium, and an inhibition area of the corresponding antibiotics was measured by a conventional filter paper method.

PAO1 strains [6] = experiment: Bacterial motility assay, twitching plate; assay type: cell-based, Pseudomonas aeruginosa; details: 37° C., 24 hours
Protocol: PAO1 strains were inoculated into a LBNS agar plate and were cultured overnight at 37° C. Single colonies were respectively stab-inoculated to the bottom of twitching plates with and without the coumarin-chalcone compound C9, and cultured at 37° C. for 24 hours. The growth of bacteria at an interface between the agar and the plastic plate was a twitching movement. When 1% TTC was added to the medium, the area that bacteria have visited may turn red, and then the diameter of the red area on each twitching plate was measured.

[7] = tested on: c-di-GMP (PAO1/pCdrA::gfp (ASV)); experiment: Intracellular c-di-GMP, indirect, pCdrA::gfp reporter; assay type: cell-based, Pseudomonas aeruginosa; details: FIG. 6
Excerpt: (§5) The intracellular c-di-GMP may control the conversion of bacterial lifestyle between plankton and biofilm. In order to analyze an effect of the coumarin-chalcone compound C9 on a concentration of the intracellular c-di-GMP, direct and indirect methods were used to measure the level of c-di-GMP in Pseudomonas aeruginosa.
Since the transcription and expression of the extracellular protein CdrA was related to the intracellular concentration of cyclic diguanylic acid (c-di-GMP), PAO1/pCdrA::gfp^s (ASV) was used to analyze c-di-GMP level indirectly.

intracellular c-di-GMP = experiment: Intracellular c-di-GMP, direct, LC-MS/MS quantification; assay type: cell-based, Pseudomonas aeruginosa; details: FIG. 7
Excerpt: as §5
C-di-GMP was directly extracted from PAO1 strain grown with or without the coumarin-chalcone compound C9. The intracellular c-di-GMP was directly measured by LC-MS/MS quantification.

COc1cccc(/C=C/C(=O)c2cc3ccccc3oc2=O)c1 [Compound C9]
MIC of a biofilm against ciprofloxacin (Pseudomonas aeruginosa [1]): significantly lower
MIC of a biofilm against tobramycin (Pseudomonas aeruginosa [1]): significantly lower
effect on growth of Pseudomonas aeruginosa PAO1 (OD600) [2]: no significant effect
transcription of LasR (LasR): downregulated
transcription of RhIR (RhIR): downregulated
transcription of PqsR (PqsR): downregulated
MBEC of a biofilm against ciprofloxacin [3]: significantly lower
MBEC of a biofilm against tobramycin [3]: significantly lower
flagellate-mediated swimming ability (PAO1 strains [4]): no effect
susceptibility of Pseudomonas aeruginosa to fluoroquinolone antibiotics (CIP) (Pseudomonas aeruginosa [5]): significantly higher
twitching motility mediated by type IV pili (PAO1 strains [6]): no effect
fluorescence intensity of PAO1/pCdrA::gfp (ASV) [7]: significantly reduced
reduction on the c-di-GMP concentration (intracellular c-di-GMP): 2 fold
